Test results: patent US20240374631A1, “A COMPOSITION FOR IMPROVING GUT MICROBIOTA, BEHAVIOURAL PATTERN, ALPHA-SYNUCLEIN LEVELS, SLEEP PATTERN AND/OR SERUM MELATONIN” (GN Corporation Co Ltd, priority 2021, published 2024)

System: gut microbiota
Assay: Gut microbiome analysis (16S rRNA sequencing of fecal samples) in STAM model of NASH
Type: in vivo, C57BL/6J mice
Conditions: pre
Source text: The study is reported in accordance with Animal Research: Reporting of In Vivo Experiments (ARRIVE) guidelines. C57BL/6J mice were obtained from Japan SLC, Inc. (Japan). All animals used in this study were cared for under the following guidelines: Act on Welfare and Management of Animals (Ministry of the Environment, Japan, Act No. 105 of Oct. 1, 1973), standards relating to the care and management of laboratory animals and relief of pain (Notice No. 88 of the Ministry of the Environment, Japan, Apr. 28, 2006) and the guidelines for proper conduct of animal experiments (Science Council of Japan, Jun. 1, 2006). Protocol approvals were obtained from SMC Laboratories, Japan's IACUC (Study reference no: […] Mice were maintained in a specific pathogen-free (SPF) facility under controlled conditions of temperature (23±3° C.), humidity (50±20%), lighting (12-hour artificial light and dark cycles; light from 8:00 to 20:00) and air exchange. The STAM model of NASH was induced as previously described [D10]. Mice were given a single subcutaneous injection of 200 μg streptozotocin (STZ, Sigma-Aldrich, USA) solution 2 days after birth and fed with a high-fat diet (HFD, 57 kcal % fat, Cat #HFD32, CLEA Japan, Inc., Japan) from 4-9 weeks of age. All mice develop liver steatosis and diabetes and at […] mice had established steatohepatitis, histologically. Studygroups: There were five study groups, described below. Eight mice were included in each study group. Eight NASH mice were orally administered vehicle supplemented with AFO-202 Beta Glucan at a dose of 1 mg/kg in a volume of 5 mL/kg once daily from 6 to 9 weeks of age. Eight NASH mice were orally administered vehicle supplemented with Telmisartan at a dose of 10 mg/kg once daily from 6 to 9 weeks of age. Frequency: Fecal samples were collected at the 6 weeks of age (before administration) and 9 weeks of age (before sacrifice). Procedure: At 6 weeks of age, fecal samples were collected from each mouse by clean catch method. […] A sterile petri dish was placed on the bench. Gently massage the abdomen, position the bottom of mouse over a fresh petri dish, and collect 1-2 fecal pellets. At sacrifice, fecal samples were aseptically collected from cecum. The tubes with feces were placed on ice immediately. These tubes were snap frozen in liquid nitrogen and stored at -80° C. for shipping. In this analysis, the 16S rRNA sequence data acquired by the next-generation sequencer from the fecal […] was used to perform community analysis using the QIIME2 program for microbial community analysis. The raw read data in FASTQ format output from the next-generation sequencer was trimmed to remove adapter sequences and low QV regions that may be included in the data. Cutadapt was used to remove adapter sequences from DNA sequencing reads. Trimmomatic was used as read trimming tool for Illumina NGS data. The adapter sequence was trimmed using the adapter trimming program “cutadapt” if the Trimming of the region at the end of the read sequence overlapped the corresponding sequence by at least one base (mismatch tolerance: 20%). When reads containing N were present in at least one of Read1 and Read2, both Read1 and Read2 were removed. Trimming of low QV regions was performed on the read data after processing using the QV trimming program “Trimmomatic” under the following conditions. The window of 20 bases is slid from the 5' side, and the area where the average QV is less than 20 is trimmed. After trimming, only the reads with more than 50 bases remaining in both Read1 and Read2 were taken as output. The microbial community analysis based on 16S rRNA sequence was performed on the sequence data trimmed in the previous section using the microbial community analysis program “QIIME2”. The annotation program “sklearn” included in QIIME2 is used to annotate the ASV (OTU) sequences. […]

CCCc1nc2c(C)cc(-c3nc4ccccc4n3C)cc2n1Cc1ccc(-c2ccccc2C(=O)O)cc1 [Telmisartan]
Abundance S24-7/—/— (line r81): 327 | Abundance Lachnospiraceae/[Ruminococcus]/gnavus (line r83): 120 | Abundance Ruminococcaceae/Oscillospira/— (line r84): 284 | Abundance Ruminococcaceae/Anaerotruncus/— (line r85): 638 | Abundance Alcaligenaceae/Sutterella/— (line r86): 191 | Abundance S24-7/—/— (line r87): 394 | Abundance F16/—/— (line r88): 329 | Abundance Other/Other/Other (line r90): 276 | Abundance Lachnospiraceae/[Ruminococcus]/gnavus (line r91): 168 | Abundance S24-7/—/— (line r92): 476 | Abundance Rikenellaceae/—/— (line r93): 259 | Abundance Lachnospiraceae/[Ruminococcus]/gnavus (line r94): 62 | Abundance Lachnospiraceae/—/— (line r95): 250 | Abundance Clostridiaceae/Other/Other (line r96): 693 | Abundance Lachnospiraceae/—/— (line r97): 78 | Abundance Ruminococcaceae/Oscillospira/— (line r98): 160 | Abundance Enterococcaceae/Enterococcus/— (line r99): 32 | Abundance Rikenellaceae/—/— (line r100): 239 | Abundance S24-7/—/— (line r101): 208 | Abundance Lactobacillaceae/Lactobacillus/reuteri (line r102): 0 | Abundance Bacteroidaceae/Bacteroides/acidifaciens (line r103): 161 | Abundance Ruminococcaceae/Oscillospira/— (line r104): 202 | Abundance Enterobacteriaceae/Escherichia/coli (line r105): 0 | Abundance Ruminococcaceae/Oscillospira/— (line r106): 152 | Abundance —/—/— (line r107): 228 | Abundance S24-7/—/— (line r108): 157 | Abundance —/—/— (line r109): 988 | Abundance Other/Other/Other (line r110): 463 | Abundance Lachnospiraceae/—/— (line r111): 46 | Abundance Lachnospiraceae/[Ruminococcus]/gnavus (line r112): 148 | Abundance Lachnospiraceae/—/— (line r113): 390 | Abundance Enterobacteriaceae/Klebsiella/Other (line r114): 0 | Abundance Lachnospiraceae/—/— (line r115): 76 | Abundance Enterobacteriaceae/Klebsiella/— (line r116): 0 | Abundance —/—/— (line r117): 0 | Abundance Lactobacillaceae/Lactobacillus/— (line r118): 4 | Abundance Other/Other/Other (line r119): 57 | Abundance —/—/— (line r120): 209 | Abundance Erysipclotrichaceae/Allobaculum/— (line r121): 203 | Abundance —/—/— (line r122): 131 | Abundance Lachnospiraceae/—/— (line r123): 207 | Abundance —/—/— (line r124): 362 | Abundance Other/Other/Other (line r125): 58 | Abundance Lactobacillaceae/Lactobacillus/reuteri (line r126): 0 | Abundance Ruminococcaceae/Oscillospira/— (line r127): 158 | Abundance Lachnospiraceae/—/— (line r128): 50 | Abundance S24-7/—/— (line r130): 64 | Abundance Lachnospiraceae/—/— (line r131): 315 | Abundance S24-7/—/— (line r132): 104 | Abundance S24-7/—/— (line r133): 60 | Abundance Lachnospiraceae/—/— (line r134): 19 | Abundance —/—/— (line r135): 28 | Abundance Coriobacteriaceae/Adlercreutzia/— (line r136): 110 | Abundance —/—/— (line r137): 200 | Abundance Clostidiaceae/Other/Other (line r138): 0 | Abundance Turicibacteraceae/Turicibacter/— (line r139): 125 | Abundance Ruminococcaceae/Ruminococcus/— (line r140): 193 | Abundance Ruminococcaceae/Oscillospira/— (line r141): 215 | Abundance Dehalobacteriaceae/Dehalobacterium/— (line r142): 43 | Abundance Staphylococcaceae/Staphylococcus/Other (line r143): 110 | Abundance Rikenellaceae/—/— (line r144): 61 | Abundance Lachnospiraceae/—/— (line r145): 87 | Abundance —/—/— (line r146): 60 | Abundance Staphylococcaceae/Staphylococcus/sciuri (line r147): 34 | Abundance —/—/— (line r148): 103 | Abundance Ruminococcaceae/Ruminococcus/— (line r149): 157 | Abundance Coriobacteriaceae/Adlercreutzia/— (line r150): 101 | Abundance Ruminococcaceae/Oscillospira/— (line r151): 61 | Abundance Lachnospiraceae/Clostridium/Other (line r152): 85 | Abundance Lachnospiraceae/Coprococcus/— (line r153): 151 | Abundance Desulfovibrionaceae/—/— (line r154): 50 | Abundance —/—/— (line r155): 94 | Abundance Lachnospiraceae/—/— (line r156): 0 | Abundance Dehalobacteriaceae/Dehalobacterium/— (line r157): 41 | Abundance Coriobacteriaceae/Adlercreutzia/— (line r158): 90 | Abundance Lachnospiraceae/—/— (line r159): 37 | Abundance Lachnospiraceae/—/— (line r160): 168 | Abundance Ruminococcaceae/Oscillospira/— (line r161): 0 | Abundance Streptococcaceae/Streptococcus/— (line r163): 0 | Abundance Lachnospiraceae/[Ruminococcus]/gnavus (line r164): 83 | Abundance Lachnospiraceae/—/— (line r165): 102 | Abundance Lachnospiraceae/—/— (line r166): 231 | Abundance Coriobacteriaceae/Adlercreutzia/— (line r167): 74 | Abundance Erysipelotrichaceae/Clostridium/cocleatum (line r169): 0 | Abundance S24-7/—/— (line r170): 53 | Abundance Lachnospiraceae/—/— (line r171): 27 | Abundance Bacteroidaceae/Bacteroides/— (line r172): 55 | Abundance Ruminococcaceae/Oscillospira/— (line r173): 59 | Abundance Ruminococcaceae/—/— (line r174): 41 | Abundance Lachnospiraceae/Other/Other (line r175): 52 | Abundance Lachnospiraceae/Dorea/— (line r176): 28 | Abundance Lachnospiraceae/—/— (line r177): 0 | Abundance S24-7/—/— (line r178): 168 | Abundance Lachnospiraceae/—/— (line r179): 92 | Abundance Lactobacillaceae/Lactobaccilus/Other (line r180): 0 | Abundance —/—/— (line r181): 34 | Abundance Ruminococcaceae/Oscillospira/— (line r182): 99 | Abundance S24-7/—/— (line r183): 55 | Abundance S24-7/—/— (line r184): 67 | Abundance [Mogibacteriaceae]/—/— (line r185): 36 | Abundance Peptococcaceae/—/— (line r186): 43 | Abundance —/—/— (line r187): 13 | Abundance —/—/— (line r188): 0 | Abundance S24-7/—/— (line r189): 76
